The record followed here is patent publication US20120277517A1, “Formulation and Methods for Enhanced Interventional Image-Guided Therapy of Cancer” (The Johns Hopkins University, priority 2011, published 2012).

For this data set, the system named is Hep3B cells. The experiment in a line: Intratumoral injection with or without AMF hyperthermia in mice with subcutaneous Hep3B tumors. The format is in vivo, mouse. To be noted: may be attributed to hyperthermia.

From the text: In another exemplary experiment, Hep3B cells were implanted by subcutaneous injection of 3×10^6 Hep3B cells suspended in PBS into the right flank of each mouse that was randomly assigned into 2 main groups (heated and unheated) that were further divided into three subgroups. When tumors reached 100 mm^3, these received intratumoral injections of T-C formulation, BNF particles alone, or PBS (3 subgroups). The heated group (9 mice) received AMF hyperthermia. Two mice from each subgroup were euthanized 24 hours following treatment, and the remaining one was euthanized when tumor in the PBS group reached 2000 mm^3.
For AMF exposure, each mouse was placed in a chamber constructed from a standard polypropylene 50-mL conical centrifuge tube that was positioned in the center of the solenoid coil. Prior to AMF therapy, each mouse received intraperitoneal injections of ketamine/xylazine (anesthesia) at an approximate dose of a 200-μL injection. Each mouse was placed in the coil for 30 min and exposed to one of the following AMF amplitudes: 0, 24, or 60 kA/m. […] During AMF exposure, mice were placed into the AMF inductor coil and therefore exposed to maximum magnetic field, corresponding to the measured (by field probe) field. Rectal and tumor temperatures were measured at one-second intervals for each mouse exposed to AMF using fiber optic temperature probes.

Consider `COc1cccc2c1C(=O)c1c(O)c3c(c(O)c1C2=O)C[C@@](O)(C(=O)CO)C[C@@H]3O[C@H]1C[C@H](N)[C@H](O)[C@H](C)O1` [doxorubicin], for which the degradation of doxorubicin is listed as 7-8%.
